Experimental data taken from patent US5464617A, “β-lactam compounds” (Hoffmann-La Roche Inc., priority 1994, dated 1995).
≈ marks a conversion by molar mass, not a printed value. Where a name gives a salt, the structure may show the parent alone.

Key:
[1] = tested on: E. coli 1346; assay: Antibacterial activity of the products per se, serial dilution method in liquid medium (Test E); format: cell-based; conditions: product per se; for MIC E. coli 1346: Table 3, liquid medium; for MIC E. coli 1346 (E): test E
Source text: The antibacterial activity of the products per se is illustrated on the basis of Table 3 hereinafter, the minimum inhibitory concentration […] in vitro against E. coli 1346 being determined using the serial dilution method in liquid medium: […]

[2] = tested on: Citrobacter freundii 1982; assay: MIC in vitro of a 1:4 combination of ceftriaxone with a compound of formula I (Test D); format: cell-based; conditions: for MIC C. freundii 1982: Table 2; for MIC C. freundii 1982 (D): test D
Procedure: The minimum inhibitory concentration in vitro ([…]) of a 1:4 combination of ceftriaxone with a compound of formula I against Citrobacter freundii 1982 was measured and compiled in Table 2 hereinafter.

[3] = 1:4 combination of ceftriaxone with the compound
[4] = Table 4, 1:4 combination of ceftriaxone with the compound

| SMILES | MIC E. coli 1346 [1] | MIC C. freundii 1982 [2, 3] | MIC E. coli 1346 (E) ([1]; Table 4) | MIC C. freundii 1982 (D) [2, 4] | also measured |
| --- | --- | --- | --- | --- | --- |
| CS(=O)(=O)OC1=C(C(=O)O)N2C(=O)[C@@H]3[C@H]2[C@H](C1)CN3C(=O)NC1CCSC1=O (mixture of isomers) [9(f), (1aS,3aR,6bR)-5-Methylsulphonyloxy-1-oxo-2-[(R) and [(S)-2-oxo-tetrahydro-thien-3-ylcarbamoyl]-1a,2,3,3a,4,6b-hexahydro-1H-2,6a-diazacyclobut[cd]indene-6-carboxylic acid sodium salt] | 32 µg/mL | 0.12 µg/mL |  |  |  |
| CC(=O)N1C[C@H]2CC(Sc3nnc(C)s3)=C(C(=O)O)N3C(=O)[C@@H]1[C@@H]23 [3(ac), (1aS,3aR,6bR)-2-Acetyl-5-(5-methyl-1,3,4-thiadiazol-2-ylsulphanyl)-1-oxo-1a,2,3,3a,4,6b-hexahydro-1H-2,6a-diazacyclobut[cd]indene-6-carboxylic acid sodium salt] |  |  | 8 µg/mL | 4 µg/mL |  |
| CC(=O)N1C[C@H]2CC(Sc3nnc(N)s3)=C(C(=O)O)N3C(=O)[C@@H]1[C@@H]23 [3(ae), (1aS,3aR,6bR)-2-Acetyl-5-(5-amino-1,3,4-thiadiazol-2-ylsulphanyl)-1-oxo-1a,2,3,3a,4,6b-hexahydro-1H-2,6a-diazacyclobut[cd]indene-6-carboxylic acid sodium salt] |  |  | 4 µg/mL | 4 µg/mL |  |
| N#CCC(=O)N1C[C@H]2CC(Sc3nnc(N)s3)=C(C(=O)O)N3C(=O)[C@@H]1[C@@H]23 [3(ag), (1aS,3aR,6bR)-5-(5-Amino-1,3,4-thiadiazol-2-ylsulphanyl)-2-cyanoacetyl-1-oxo-1a,2,3,3a,4,6b-hexahydro-1H-2,6a-diazacyclobut[cd]indene-6-carboxylic acid sodium salt] |  |  | 8 µg/mL | 2 µg/mL |  |
| O=C(O)C1=C(Sc2ccncc2)C[C@@H]2CN(C(=O)C(F)(F)F)[C@@H]3C(=O)N1[C@H]23 [3(ai), (1aS,3aR,6bR)-1-Oxo-5-(pyridin-4-ylsulphanyl)-2-trifluoracetyl-1a,2,3,3a,4,6b-hexahydro-1H-2,6a-diazacyclobut[cd]indene-6-carboxylic acid sodium salt] |  |  | > 32 µg/mL | 32 µg/mL |  |
| CC(=O)N1C[C@H]2CC(SCC(N)=O)=C(C(=O)O)N3C(=O)[C@@H]1[C@@H]23 [3(ak), (1 aS,3aR,6bR)-2-Acetyl-5-carbamoylmethylsulphanyl-1-oxo-1a,2,3,3a,4,6b-hexahydro-1H-2,6a-diazacyclobut[cd]indene-6-carboxylic acid sodium salt] |  |  | 16 µg/mL | 4 µg/mL |  |
| NC(=O)CSC1=C(C(=O)O)N2C(=O)[C@@H]3[C@H]2[C@H](C1)CN3C(=O)C(F)(F)F [3(al), (1aS,3aR,6bR)-5-Carbamoylmethylsulphanyl-1-oxo-2-trifluoroacetyl-1a,2,3,3a,4,6b-hexahydro-1H-2,6a-diazacyclobut[cd]indene-6-carboxylic acid sodium salt] |  |  | 8 µg/mL | 2 µg/mL |  |
| Cn1nc[n+](C)c1CSC1=C(C(=O)[O-])N2C(=O)[C@@H]3[C@H]2[C@H](C1)CN3C(=O)C(F)(F)F [3(an), (1aS,3aR,6bR)-5-[(1,4-Dimethyl-1H-1,2,4-triazol-5-ylio)methylsulphanyl]-1-oxo-2-trifluoroacetyl-1a,2,3,3a,4,6b-hexahydro-1H-2,6a-diazacyclobut[cd]indene-6-carboxylate] |  |  | 32 µg/mL (≈ 74.2 µM) | 32 µg/mL |  |
| CC(=O)N1C[C@H]2CC(SCc3n(C)nc[n+]3C)=C(C(=O)[O-])N3C(=O)[C@@H]1[C@@H]23 [3(ao), (1aS,3aR,6bR)-2-Acetyl-5-[(1,4-dimethyl-1H-1,2,4-triazol-5-ylio)-methylsulphanyl]-1-oxo-1a,2,3,3a,4,6b-hexahydro-1H-2,6a-diazacyclobut[cd]indene-6-carboxylate] |  |  | > 32 µg/mL | 8 µg/mL |  |
| Cn1nnnc1SC1=C(C(=O)O)N2C(=O)[C@@H]3[C@H]2[C@H](C1)CN3C(=O)NCc1cccs1 [3(d), (1aS,3aR,6bR)-5-(1-Methyl-1H-tetrazol-5-ylsulphanyl)-1-oxo-2-(thien-2-ylmethylcarbamoyl)-1a,2,3,3a,4,6b-hexahydro-1H-2,6a-diazacyclobut[cd]indene-6-carboxylic acid sodium salt] | 32 µg/mL | 1 µg/mL |  |  |  |
| Cn1nnnc1SC1=C(C(=O)O)N2C(=O)[C@@H]3[C@H]2[C@H](C1)CN3C(=O)NCc1ccc(O)c(O)c1 [3(e), (1aS,3aR,6bR)-2-(3,4-Dihydroxy-benzylcarbamoyl)-5-(1-methyl-1H-tetrazol-5-ylsulphanyl)-1-oxo-1a,2,3,3a,4,6b-hexahydro-1H-2,6a-diazacyclobut[cd]indene-6-carboxylic acid salt] | 32 µg/mL | 2 µg/mL |  |  |  |
| Cn1nnnc1SC1=C(C(=O)O)N2C(=O)[C@@H]3[C@H]2[C@H](C1)CN3C(=O)NCc1ccc(S(N)(=O)=O)cc1 [3(g), (1aS,3aR,6bR)-5-(1-Methyl-1H-tetrazol-5-ylsulphanyl)-1-oxo-2-(4-sulphamoyl-benzylcarbamoyl)-1a,2,3,3a,4,6b-hexahydro-1H-2,6a-diazacyclobut[cd]indene-6-carboxylic acid sodium salt] | 16 µg/mL | 0.5 µg/mL |  |  |  |
| COc1cc(CNC(=O)N2C[C@H]3CC(Sc4nnnn4C)=C(C(=O)O)N4C(=O)[C@@H]2[C@@H]34)on1 [3(h), (1aS,3aR,6bR)-2-(3-Methoxy-isoxazol-5-ylmethylcarbamoyl)-5-(1-methyl-1H-tetrazol-5-ylsulphanyl)-1-oxo-1a,2,3,3a,4,6b-hexahydro-1H-2,6a-diazacyclobut[cd]indene-6-carboxylic acid sodium salt] | 16 µg/mL | 2 µg/mL |  |  |  |
| Nc1nnc(SC2=C(C(=O)O)N3C(=O)[C@@H]4[C@H]3[C@H](C2)CN4C(=O)Nc2ccc(O)cc2)s1 [3(l), (1aS,3aR,6bR)-5-(5-Amino-1,3,4-thiadiazol-2-ylsulphanyl)-2-(4-hydroxyphenylcarbamoyl)-1-oxo-1a,2,3,3a,4,6b-hexahydro-1H-2,6a-diazacyclobut[cd]indene-6-carboxylic acid sodium salt] | 8 µg/mL | 0.5 µg/mL |  |  | MIC E. coli 1346 (E) ([1]; Table 5, particularly preferred products): 8 µg/mL; MIC C. freundii 1982 (D) ([2]; Table 5, particularly preferred products, 1:4 combination with ceftriaxone): 0.5 µg/mL |
| NC(=O)c1ccc(NC(=O)N2C[C@H]3CC(Sc4ccncc4)=C(C(=O)O)N4C(=O)[C@@H]2[C@@H]34)cc1 [3(n), (1aS,3aR,6bR)-2-(4-Carbamoyl-phenylcarbamoyl)-1-oxo-5-(pyridin-4-ylsulphanyl)-1a,2,3,3a,4,6b-hexahydro-1H-2,6a-diazacyclobut[cd]indene-6-carboxylic acid sodium salt] |  |  | > 32 µg/mL | 1 µg/mL |  |
| O=C(O)C1=C(Sc2ccncc2)C[C@@H]2CN(C(=O)Nc3ccc(O)cc3)[C@@H]3C(=O)N1[C@H]23 [3(o), (1aS,3aR,6bR)-2-(4-Hydroxy-phenylcarbamoyl)-1-oxo-5-(pyridin-4-ylsulphanyl)-1a,2,3,3a,4,6b-hexahydro-1H-2,6a-diazacyclobut[cd]indene-6-carboxylic acid sodium salt] |  |  | > 32 µg/mL | 1 µg/mL |  |
| NC(=O)CSC1=C(C(=O)O)N2C(=O)[C@@H]3[C@H]2[C@H](C1)CN3C(=O)Nc1ccc(O)cc1 [3(p), (1aS,3aR,6bR)-5-Carbamoylmethylsulphanyl-2-(4-hydroxyphenylcarbamoyl)-1-oxo-5-(pyridin-4-ylsulphanyl)-1a,2,3,3a,4,6b-hexahydro-1H-2,6a-diazacyclobut[cd]indene-6-carboxylic acid sodium salt] |  |  | 32 µg/mL | 1 µg/mL |  |
| Cn1nc[n+](C)c1CSC1=C(C(=O)[O-])N2C(=O)[C@@H]3[C@H]2[C@H](C1)CN3C(=O)Nc1ccc(O)cc1 [3(q), (1aS,3aR,6bR)-5-[(1,4-Dimethyl-1H-1,2,4-triazol-5-ylio)methylsulphanyl]-2-(4-hydroxy-phenylcarbamoyl)-1-oxo-1a,2,3,3a,4,6b-hexahydro-1H-2,6a-diazacyclobut[cd]indene-6-carboxylate] |  |  | > 32 µg/mL | 2 µg/mL |  |
| CS(=O)(=O)OC1=C(C(=O)O)N2C(=O)[C@@H]3[C@H]2[C@H](C1)CN3C(=O)Nc1ccc(O)cc1 [9(a), (1aS,3aR,6bR)-2-(4-Hydroxy-phenylcarbamoyl)-5-methylsulphonyloxy-1-oxo-1a,2,3,3a,4,6b-hexahydro-1H-2,6a-diazacyclobut[cd]indene-6-carboxylic acid sodium salt] | 32 µg/mL | 0.12 µg/mL |  |  |  |
| CS(=O)(=O)OC1=C(C(=O)O)N2C(=O)[C@@H]3[C@H]2[C@H](C1)CN3C(=O)Nc1ccc(C(N)=O)cc1 [9(b), (1aS,3aR,6bR)-2-(4-Carbamoyl-phenylcarbamoyl)-5-methylsulphonyloxy-1-oxo-1a, 2,3,3a,4,6b-hexahydro-1H-2,6a-diazacyclobut[cd]indene-6-carboxylic acid sodium salt] | 0.5 µg/mL | 0.25 µg/mL |  |  |  |
| CS(=O)(=O)OC1=C(C(=O)O)N2C(=O)[C@@H]3[C@H]2[C@H](C1)CN3C(=O)NCc1cccs1 [9(c), (1aS,3aR,6bR)-5-Methylsulphonyloxy-2-(thien-2-ylmethylcarbamoyl)-1-oxo-1a,2,3,3a,4,6b-hexahydro-1H-2,6a-diazacyclobut[cd]indene-6-carboxylic acid sodium salt] | 8 µg/mL | 1 µg/mL |  |  |  |
